The compounds below were run against Acyl-homoserine lactone acylase PvdQ [A190E,F674L] (Pseudomonas aeruginosa, UniProt Q9I194, A190E/F674L) (assay: PvdQ IC50 Assay).
Experimental: The assay was performed with nine compound concentrations that ranged from 3 nM to 19.5 µM with PvdQ concentration of 20 nM. The positive control, isopropyl dodecylfluorophosphonate (IDFP), was added in 24 selective wells to a final concentration of 200 µM. The assay plates were initially read at time = 0 and then incubated for 60 min at RT. The plates were read again at time = 60 min.

Sequence of Acyl-homoserine lactone acylase PvdQ [A190E,F674L] (Q9I194 whole entry, looked up, stated change not applied): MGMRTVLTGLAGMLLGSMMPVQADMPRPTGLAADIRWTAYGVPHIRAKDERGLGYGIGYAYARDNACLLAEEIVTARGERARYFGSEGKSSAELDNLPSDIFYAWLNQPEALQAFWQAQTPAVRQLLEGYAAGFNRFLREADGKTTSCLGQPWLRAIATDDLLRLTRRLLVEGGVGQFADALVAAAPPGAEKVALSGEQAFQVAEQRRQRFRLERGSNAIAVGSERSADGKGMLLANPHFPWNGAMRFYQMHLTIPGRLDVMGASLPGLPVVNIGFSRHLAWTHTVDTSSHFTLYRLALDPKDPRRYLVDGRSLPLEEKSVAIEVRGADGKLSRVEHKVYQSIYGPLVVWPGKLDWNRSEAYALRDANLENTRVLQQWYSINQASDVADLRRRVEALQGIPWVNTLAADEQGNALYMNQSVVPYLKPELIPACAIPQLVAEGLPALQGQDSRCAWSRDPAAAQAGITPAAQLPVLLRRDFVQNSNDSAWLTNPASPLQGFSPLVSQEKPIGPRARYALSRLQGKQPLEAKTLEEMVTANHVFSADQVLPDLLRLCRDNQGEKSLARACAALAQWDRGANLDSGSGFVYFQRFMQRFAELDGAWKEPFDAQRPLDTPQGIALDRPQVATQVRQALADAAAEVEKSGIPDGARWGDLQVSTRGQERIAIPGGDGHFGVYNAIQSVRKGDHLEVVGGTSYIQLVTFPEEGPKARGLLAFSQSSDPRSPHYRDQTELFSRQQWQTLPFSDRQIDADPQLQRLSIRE

Compared with `N#Cc1cccc(C(C#N)c2ccc(Cl)cc2Cl)n1` (stereo not given) [6-(Cyano(2,4-dichlorophenyl)methyl)picolinonitrile (33)], `N#Cc1cccc(C(C#N)c2ccc(Cl)cc2F)n1` (stereo not given) [6-((4-Chloro-2-fluorophenyl)(cyano)methyl) picolinonitrile (30)] is 2.6-fold lower in IC50: 290 nM for the first, 110 nM for the second.

`N#Cc1ccc(C(C#N)c2ccc(Cl)cc2Cl)nc1` (stereo not given) [6-(Cyano(2,4-dichlorophenyl)methyl)nicotinonitrile (34)] and `N#Cc1ccc(C(C#N)c2ccc(Cl)cc2)nc1` (stereo not given) [6-((4-Chlorophenyl)(cyano)methyl)nicotinonitrile (23)] are within 1.5-fold of each other in IC50: 1800 nM for the first, 2500 nM for the second.

Compared with `N#CC(c1ccc(C(F)(F)F)cc1)c1cccc(Cl)n1` (stereo not given) [2-(6-Chloropyridin-2-yl)-2-(4-(trifluoromethyl)phenyl)acetonitrile (10)], `N#CC(c1ccc(C(F)(F)F)cc1)c1cccc(C(F)(F)F)n1` (stereo not given) [2-(4-(Trifluoromethyl)phenyl)-2-(6-(trifluoromethyl)pyridin-2-yl)acetonitrile (29)] is 2.8-fold lower in IC50: 390 nM for the first, 140 nM for the second.

First: N#CC(c1ccc(Cl)cc1)c1ncccc1Cl (stereo not given) [2-(4-Chlorophenyl)-2-(3-chloropyridin-2-yl) acetonitrile (15)]
Second: N#CC(c1ccc(Cl)cc1)c1ccccn1 (stereo not given) [2-(4-Chlorophenyl)-2-(pyridin-2-yl)acetonitrile (24)]
The IC50 of the first is 27-fold lower: 10 nM for the first, 270 nM for the second.

Compared with `N#CC(c1cccc(Cl)n1)c1ccc(Cl)cc1F` (stereo not given) [2-(4-Chloro-2-fluorophenyl)-2-(6-chloropyridin-2-yl) acetonitrile (13)], `N#CC(c1cccc(Cl)n1)c1ccc(Cl)cc1Cl` (stereo not given) [2-(6-Chloropyridin-2-yl)-2-(2,4-dichlorophenyl) acetonitrile (12)] is 4.2-fold higher in IC50: 60 nM for the first, 250 nM for the second. The first is the more potent here.

`N#CC(c1ccc(Cl)cc1)c1ccc(C(F)(F)F)c(Cl)n1` (stereo not given) [2-(6-Chloro-5-(trifluoromethyl)pyridin-2-yl)-2-(4-chlorophenyl)acetonitrile (21)] and `N#CC(c1ccc(F)cc1)c1ccc(C(F)(F)F)c(Cl)n1` (stereo not given) [2-(6-Chloro-5-(trifluoromethyl)pyridin-2-yl)-2-(4-fluorophenyl)acetonitrile (27)] are within 1.5-fold of each other in IC50: 620 nM for the first, 740 nM for the second.

First: CCCCC(C#N)c1ccc(Cl)cc1 (stereo not given) [2-(4-Chlorophenyl)hexanenitrile (38)]
Second: CCCC(C#N)c1ccc(Cl)cc1 (stereo not given) [2-(4-Chlorophenyl)pentanenitrile (37)]
The IC50 of the first is 4.2-fold lower: 1400 nM for the first, 5900 nM for the second.

First: N#CC(c1ccc(C(F)(F)F)cn1)c1ccc(Cl)cc1F (stereo not given) [2-(4-Chloro-2-fluorophenyl)-2-(5-(trifluoromethyl)-pyridin-2-yl)acetonitrile (31)]
Second: N#CC(c1ccc(Cl)cc1)c1ccc(C(F)(F)F)cn1 (stereo not given) [2-(4-Chlorophenyl)-2-(5-(trifluoromethyl)pyridin-2-yl)acetonitrile (20)]
The IC50 of the first is 240-fold lower: 10 nM for the first, 2400 nM for the second. The first is the more potent here.

`CCCCC(C#N)c1ccc(F)cc1` (stereo not given) [2-(4-Fluorophenyl)hexanenitrile (46)] and `COCCC(C#N)c1ccc(F)cc1` (stereo not given) [2-(4-Fluorophenyl)-4-methoxybutanenitrile (47)] are within 1.5-fold of each other in IC50: 320 nM for the first, 290 nM for the second.

`N#Cc1cccc(C(C#N)c2ccc(F)cc2)n1` (stereo not given) [6-(Cyano(4-fluorophenyl)methyl)picolinonitrile (25)] and `N#Cc1cccc(C(C#N)c2ccc(Cl)cc2)n1` (stereo not given) [6-((4-Chlorophenyl)(cyano)methyl)picolinonitrile (17)] are within 1.5-fold of each other in IC50: 130 nM for the first, 180 nM for the second.

Going from `N#CC(c1ccc(F)cc1)c1cccc(C(F)(F)F)n1` (stereo not given) [2-(4-Fluorophenyl)-2-(6-(trifluoromethyl)pyridin-2-yl) acetonitrile (4)] to `N#CC(c1ccc(Cl)cc1)c1cccc(C(F)(F)F)n1` (stereo not given) [2-(4-Chlorophenyl)-2-(6-(trifluoromethyl)pyridin-2-yl)acetonitrile (16)], the IC50 falls from 20 nM to 10 nM (2-fold). The second is the more potent here.

Compared with `CC(C#N)(c1ccc(Cl)cc1)c1ccc(C(F)(F)F)cn1` (stereo not given) [2-(4-Chlorophenyl)-2-(5-(trifluoromethyl)pyridin-2-yl)propanenitrile (54)], `N#CC(c1ccc(C(F)(F)F)cc1)c1ccc(C(F)(F)F)c(Cl)n1` (stereo not given) [2-(6-Chloro-5-(trifluoromethyl)pyridin-2-yl)-2-(4-(trifluoromethyl)phenyl)acetonitrile (28)] is 2.1-fold higher in IC50: 1100 nM for the first, 2300 nM for the second. The first is the more potent here.

Going from `CCCCC(c1ccc(Cl)cc1)c1nnn[nH]1` (stereo not given) [5-(1-(4-Chlorophenyl)pentyl)-1H-tetrazole (53)] to `Clc1ccc(C(c2cccc(Cl)n2)c2nnn[nH]2)cc1` (stereo not given) [2-Chloro-6-((4-chlorophenyl)(1H-tetrazol-5-yl)-methyl)pyridine (52)], the IC50 falls from 6700 nM to 3400 nM (2-fold). The second is the more potent here.

Going from `N#CC1c2ccc(Cl)cc2CCc2cccnc21` (stereo not given) [8-Chloro-6,11-dihydro-5H-benzo[5,6]cyclohepta[1,2-b]pyridine-11-carbonitrile (55)] to `N#CC(c1ccc(Cl)cc1Cl)c1ncccc1Cl` (stereo not given) [2-(3-Chloropyridin-2-yl)-2-(2,4-dichlorophenyl) acetonitrile (35)], the IC50 falls from 9100 nM to 210 nM (43-fold).

Compared with `CCCCC(C#N)c1ccc(Cl)cn1` (stereo not given) [2-(5-Chloropyridin-2-yl)hexanenitrile (49)], `CCCCC(C#N)c1ccccn1` (stereo not given) [2-(Pyridin-2-yl)hexanenitrile (51)] is 2.2-fold higher in IC50: 3800 nM for the first, 8400 nM for the second.

Compared with `CCCCC(C#N)c1ccc(C(F)(F)F)cc1` (stereo not given) [2-(4-(Trifluoromethyl)phenyl)hexanenitrile (48)], `COCCC(C#N)c1ccc(Cl)cc1` (stereo not given) [2-(4-Chlorophenyl)-4-methoxybutanenitrile (41)] is lower in IC50: > 10000 nM for the first, 4800 nM for the second. The second is the more potent here.

First: N#CC(c1ccc(C(F)(F)F)c(Cl)n1)c1ccc(Cl)cc1Cl (stereo not given) [2-(6-Chloro-5-(trifluoromethyl)pyridin-2-yl)-2-(2,4-dichlorophenyl)acetonitrile (36)]
Second: N#CC(c1ccc(C(F)(F)F)c(Cl)n1)c1ccc(Cl)cc1F (stereo not given) [2-(4-Chloro-2-fluorophenyl)-2-(6-chloro-5-(trifluoro-methyl)pyridin-2-yl)acetonitrile (32)]
The IC50 of the first is 1.5-fold higher: 970 nM for the first, 630 nM for the second.

Compared with `COCCOCCC(C#N)c1ccc(Cl)cc1` (stereo not given) [2-(4-Chlorophenyl)-4-(2-methoxyethoxy)butanenitrile (42)], `CC(C)CC(C#N)c1ccc(Cl)cc1` (stereo not given) [2-(4-Chlorophenyl)-4-methylpentanenitrile (39)] is 16-fold lower in IC50: 4700 nM for the first, 290 nM for the second. The second is the more potent here.

`N#CC(c1ccc(Cl)cc1)c1ccc(Cl)cn1` (stereo not given) [2-(4-Chlorophenyl)-2-(5-chloropyridin-2-yl) acetonitrile (14)] and `Cc1ccc(C(C#N)c2ccc(Cl)cc2)nc1C#N` (stereo not given) [6-((4-Chlorophenyl)(cyano)methyl)-3-methyl picolinonitrile (22)] are within 1.5-fold of each other in IC50: 130 nM for the first, 180 nM for the second.

Going from `N#CC(CC1CC1)c1ccc(Cl)cc1` (stereo not given) [2-(4-Chlorophenyl)-3-cyclopropylpropanenitrile (40)] to `N#CC(c1cccc(Cl)n1)c1ccccc1OC(F)(F)F` (stereo not given) [2-(6-Chloropyridin-2-yl)-2-(2-(trifluoromethoxy)-phenyl)acetonitrile (11)], the IC50 rises from 540 nM to 1700 nM (3.1-fold).
